Common to all, as to assay: biochemical
Common to all, as to set-up: KINOMEscan scanMAX active site-directed competition binding assay, percent of control, 468 kinases
Holding throughout (conditions): competition binding, percent of control

For test [1], the target named is T1, ABL1(H396P)-nonphosphorylated (Homo sapiens, UniProt P00519, H396P).
T1 construct: nonphosphorylated
In short, it runs like this:
(§1)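 KINOMEscan active site-directed competition binding assay against 468 human kinases with 100 μM S-carvone. Binding expressed as % of control, with 35% of control as the inhibition threshold.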

The target of test [2] is T2, ADCK3 (Homo sapiens, UniProt Q8NI60).
T2 construct: gene COQ8A
In short, it runs like this:
as §1

Test [3] has as its target AURKC (Homo sapiens, UniProt Q9UQB9). The gist of the method: as §1
The target in test [4] is BLK (Homo sapiens, UniProt P51451). The gist of the method:
as §1

For test [5], the target named is BMPR1A (Homo sapiens, UniProt P36894). The gist of the method:
as §1

For test [6], the target named is BRSK1 (Homo sapiens, UniProt Q8TDC3). In short, it runs like this: as §1
The target in test [7] is CDK3 (Homo sapiens, UniProt Q00526). The gist of the method: as §1
The target in test [8] is CSNK2A1 (Homo sapiens, UniProt P68400). In short, it runs like this:
as §1

In test [9] the target is EPHA8 (Homo sapiens, UniProt P29322). The gist of the method:
as §1

For test [10], the target named is FGFR4 (Homo sapiens, UniProt P22455). The gist of the method: as §1
Test [11] addresses GRK3 (Homo sapiens, UniProt P35626). The gist of the method: as §1
In test [12] the target is LTK (Homo sapiens, UniProt P29376). In short, it runs like this: as §1
In test [13] the target is MAPKAPK5 (Homo sapiens, UniProt Q8IW41). The gist of the method:
as §1

In test [14] the target is NEK10 (Homo sapiens, UniProt Q6ZWH5). The gist of the method:
as §1

The target of test [15] is NEK2 (Homo sapiens, UniProt P51955). In short, it runs like this:
as §1

For test [16], the target named is PAK6 (Homo sapiens, UniProt Q9NQU5). In short, it runs like this: as §1
The target of test [17] is T3, PKAC-beta (Homo sapiens, UniProt P22694).
T3 construct: gene PRKACB
The gist of the method:
as §1

In test [18] the target is RAF1 (Homo sapiens, UniProt P04049). The gist of the method:
as §1

The target of test [19] is T4, RPS6KA4(Kin.Dom.1-N-terminal) (Homo sapiens, UniProt O75676).
T4 construct: Kin.Dom.1-N-terminal
In short, it runs like this:
as §1

Test [20] deals with TEC (Homo sapiens, UniProt P42680). The gist of the method: as §1
Test [21] concerns the target WNK1 (Homo sapiens, UniProt Q9H4A3). The gist of the method: as §1
In test [22] the target is T5, YSK1 (Homo sapiens, UniProt O00506).
T5 construct: gene STK25
The gist of the method:
as §1

Sequence of TEC (P42680 whole entry): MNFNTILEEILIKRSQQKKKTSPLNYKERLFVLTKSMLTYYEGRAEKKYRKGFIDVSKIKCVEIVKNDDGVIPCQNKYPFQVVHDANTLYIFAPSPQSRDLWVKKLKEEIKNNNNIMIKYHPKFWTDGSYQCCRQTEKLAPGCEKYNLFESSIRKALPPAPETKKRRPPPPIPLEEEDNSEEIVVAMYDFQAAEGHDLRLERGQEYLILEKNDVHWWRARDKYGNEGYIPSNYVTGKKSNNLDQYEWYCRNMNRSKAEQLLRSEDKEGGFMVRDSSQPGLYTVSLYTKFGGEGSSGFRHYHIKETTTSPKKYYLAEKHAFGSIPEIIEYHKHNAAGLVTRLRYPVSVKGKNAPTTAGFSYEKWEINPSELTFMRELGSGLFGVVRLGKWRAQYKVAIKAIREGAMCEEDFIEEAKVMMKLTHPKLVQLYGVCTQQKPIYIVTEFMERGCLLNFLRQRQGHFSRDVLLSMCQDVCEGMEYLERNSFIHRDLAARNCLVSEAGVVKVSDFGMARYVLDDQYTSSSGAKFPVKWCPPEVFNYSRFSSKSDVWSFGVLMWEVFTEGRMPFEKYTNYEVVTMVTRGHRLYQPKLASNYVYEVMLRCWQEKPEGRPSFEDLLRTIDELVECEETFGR
Sequence of NEK10 (Q6ZWH5 whole entry): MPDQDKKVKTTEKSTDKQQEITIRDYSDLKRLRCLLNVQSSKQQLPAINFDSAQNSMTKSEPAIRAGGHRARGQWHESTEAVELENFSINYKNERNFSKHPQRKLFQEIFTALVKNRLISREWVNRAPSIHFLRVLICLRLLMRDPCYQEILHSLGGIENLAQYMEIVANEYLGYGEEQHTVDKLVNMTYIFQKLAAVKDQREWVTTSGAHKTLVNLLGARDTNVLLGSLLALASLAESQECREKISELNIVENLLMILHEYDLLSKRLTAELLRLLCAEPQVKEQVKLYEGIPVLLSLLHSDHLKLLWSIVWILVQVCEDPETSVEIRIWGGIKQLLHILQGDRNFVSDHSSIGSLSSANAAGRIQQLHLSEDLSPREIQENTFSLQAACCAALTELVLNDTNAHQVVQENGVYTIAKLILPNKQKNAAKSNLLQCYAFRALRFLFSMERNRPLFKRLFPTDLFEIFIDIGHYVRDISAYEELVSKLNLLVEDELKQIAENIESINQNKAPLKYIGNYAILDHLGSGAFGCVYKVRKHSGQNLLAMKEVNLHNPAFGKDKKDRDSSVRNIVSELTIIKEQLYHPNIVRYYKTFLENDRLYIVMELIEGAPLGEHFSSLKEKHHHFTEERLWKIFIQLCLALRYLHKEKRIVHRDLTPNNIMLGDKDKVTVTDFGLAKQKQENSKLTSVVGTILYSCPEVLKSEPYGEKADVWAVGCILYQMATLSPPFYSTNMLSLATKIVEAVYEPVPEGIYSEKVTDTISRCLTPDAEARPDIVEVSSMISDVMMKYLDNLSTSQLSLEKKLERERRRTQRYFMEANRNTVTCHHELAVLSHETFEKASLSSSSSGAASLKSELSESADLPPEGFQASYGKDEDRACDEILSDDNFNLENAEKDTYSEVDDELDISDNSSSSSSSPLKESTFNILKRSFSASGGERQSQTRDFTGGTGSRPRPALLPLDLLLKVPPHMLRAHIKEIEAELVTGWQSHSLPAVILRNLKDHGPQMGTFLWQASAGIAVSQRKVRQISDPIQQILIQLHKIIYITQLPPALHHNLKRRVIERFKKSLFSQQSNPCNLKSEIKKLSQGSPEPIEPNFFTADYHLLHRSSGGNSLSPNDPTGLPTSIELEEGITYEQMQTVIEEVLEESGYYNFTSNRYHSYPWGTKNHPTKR
Sequence of LTK (P29376 whole entry): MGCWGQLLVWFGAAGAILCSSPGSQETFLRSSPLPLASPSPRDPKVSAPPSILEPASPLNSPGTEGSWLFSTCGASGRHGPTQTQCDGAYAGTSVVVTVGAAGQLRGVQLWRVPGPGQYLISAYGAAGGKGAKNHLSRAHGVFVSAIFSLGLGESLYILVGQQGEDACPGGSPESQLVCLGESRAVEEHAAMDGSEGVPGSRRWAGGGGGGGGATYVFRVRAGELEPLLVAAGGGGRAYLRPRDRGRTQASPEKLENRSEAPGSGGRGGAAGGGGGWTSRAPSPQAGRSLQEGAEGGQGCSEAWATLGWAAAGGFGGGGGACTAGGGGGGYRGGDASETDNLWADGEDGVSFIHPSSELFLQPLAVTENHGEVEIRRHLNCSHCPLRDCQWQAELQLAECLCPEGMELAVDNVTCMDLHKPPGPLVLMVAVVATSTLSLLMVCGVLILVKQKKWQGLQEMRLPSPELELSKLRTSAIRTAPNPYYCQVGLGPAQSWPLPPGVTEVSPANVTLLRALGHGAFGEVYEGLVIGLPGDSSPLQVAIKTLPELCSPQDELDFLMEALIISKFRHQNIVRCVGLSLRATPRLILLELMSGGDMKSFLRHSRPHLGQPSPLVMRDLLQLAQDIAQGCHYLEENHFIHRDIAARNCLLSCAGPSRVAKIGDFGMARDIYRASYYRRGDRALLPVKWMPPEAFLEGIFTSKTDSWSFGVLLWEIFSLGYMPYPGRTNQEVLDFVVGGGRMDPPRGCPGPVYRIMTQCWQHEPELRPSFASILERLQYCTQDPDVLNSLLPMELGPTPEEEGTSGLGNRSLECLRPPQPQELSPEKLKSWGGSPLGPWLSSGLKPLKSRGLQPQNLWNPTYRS
Sequence of BLK (P51451 whole entry): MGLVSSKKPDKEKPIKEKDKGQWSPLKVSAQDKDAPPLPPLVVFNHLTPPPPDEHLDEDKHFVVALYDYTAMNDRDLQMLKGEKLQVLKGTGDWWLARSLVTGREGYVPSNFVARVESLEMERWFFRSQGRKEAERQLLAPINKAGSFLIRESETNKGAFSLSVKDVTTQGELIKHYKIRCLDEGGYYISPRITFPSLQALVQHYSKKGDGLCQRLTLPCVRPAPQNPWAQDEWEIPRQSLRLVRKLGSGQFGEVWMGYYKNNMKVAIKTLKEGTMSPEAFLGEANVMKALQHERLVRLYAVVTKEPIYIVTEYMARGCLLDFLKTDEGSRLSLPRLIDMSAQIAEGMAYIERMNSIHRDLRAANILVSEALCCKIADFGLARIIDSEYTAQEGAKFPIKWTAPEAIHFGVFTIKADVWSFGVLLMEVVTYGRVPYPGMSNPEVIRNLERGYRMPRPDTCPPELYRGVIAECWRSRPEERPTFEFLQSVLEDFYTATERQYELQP
T4 sequence (O75676 whole entry): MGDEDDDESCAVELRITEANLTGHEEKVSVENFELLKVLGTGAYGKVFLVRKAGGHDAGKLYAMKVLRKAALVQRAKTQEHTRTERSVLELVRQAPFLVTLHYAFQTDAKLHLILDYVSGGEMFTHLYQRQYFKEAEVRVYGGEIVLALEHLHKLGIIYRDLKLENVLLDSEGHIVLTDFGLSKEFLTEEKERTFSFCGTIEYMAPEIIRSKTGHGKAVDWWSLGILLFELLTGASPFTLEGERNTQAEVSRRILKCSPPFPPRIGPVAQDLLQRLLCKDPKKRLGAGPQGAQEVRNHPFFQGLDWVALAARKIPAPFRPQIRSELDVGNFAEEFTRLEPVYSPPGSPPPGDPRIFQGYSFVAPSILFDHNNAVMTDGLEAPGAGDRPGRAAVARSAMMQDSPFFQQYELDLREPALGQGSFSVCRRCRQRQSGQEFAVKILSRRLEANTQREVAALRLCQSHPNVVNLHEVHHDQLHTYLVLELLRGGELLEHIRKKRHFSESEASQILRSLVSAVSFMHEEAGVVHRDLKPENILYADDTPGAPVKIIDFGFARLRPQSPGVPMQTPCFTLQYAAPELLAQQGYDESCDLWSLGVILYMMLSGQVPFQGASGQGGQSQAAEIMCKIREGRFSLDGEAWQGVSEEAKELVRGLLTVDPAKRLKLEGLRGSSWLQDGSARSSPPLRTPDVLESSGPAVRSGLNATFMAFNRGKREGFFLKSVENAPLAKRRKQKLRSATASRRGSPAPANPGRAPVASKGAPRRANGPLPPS
Sequence of BMPR1A (P36894 whole entry): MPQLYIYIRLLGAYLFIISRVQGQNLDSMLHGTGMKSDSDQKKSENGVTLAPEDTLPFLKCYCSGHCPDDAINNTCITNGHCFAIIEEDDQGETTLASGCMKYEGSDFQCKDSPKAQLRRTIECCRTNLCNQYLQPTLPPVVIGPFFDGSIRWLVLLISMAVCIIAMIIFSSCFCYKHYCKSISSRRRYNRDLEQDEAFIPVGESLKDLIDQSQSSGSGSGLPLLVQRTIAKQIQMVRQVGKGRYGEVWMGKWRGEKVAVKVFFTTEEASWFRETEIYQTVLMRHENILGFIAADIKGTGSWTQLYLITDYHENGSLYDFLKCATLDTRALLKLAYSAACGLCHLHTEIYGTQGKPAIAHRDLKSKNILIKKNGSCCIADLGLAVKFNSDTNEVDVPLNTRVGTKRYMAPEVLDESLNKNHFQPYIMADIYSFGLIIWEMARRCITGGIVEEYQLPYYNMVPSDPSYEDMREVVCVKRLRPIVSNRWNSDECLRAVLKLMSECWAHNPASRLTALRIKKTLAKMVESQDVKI
Sequence of MAPKAPK5 (Q8IW41 whole entry): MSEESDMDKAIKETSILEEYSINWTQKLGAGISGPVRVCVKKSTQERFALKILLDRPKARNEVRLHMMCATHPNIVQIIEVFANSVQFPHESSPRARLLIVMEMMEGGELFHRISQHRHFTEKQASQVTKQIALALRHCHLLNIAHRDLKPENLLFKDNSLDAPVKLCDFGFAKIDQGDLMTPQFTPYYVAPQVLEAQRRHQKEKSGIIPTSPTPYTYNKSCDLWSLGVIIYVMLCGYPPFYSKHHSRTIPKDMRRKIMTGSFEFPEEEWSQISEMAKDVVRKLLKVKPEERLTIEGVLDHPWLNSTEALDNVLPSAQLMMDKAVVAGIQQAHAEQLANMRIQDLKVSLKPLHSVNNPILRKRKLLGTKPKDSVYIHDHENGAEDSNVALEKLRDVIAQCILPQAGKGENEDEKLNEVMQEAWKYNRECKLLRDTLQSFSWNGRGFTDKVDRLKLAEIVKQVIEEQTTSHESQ

As to `C=C(C)[C@H]1CC=C(C)C(=O)C1` [S-carvone], the remaining binding at 100 µM was determined as 82% in [1]; 66% in [2]; 100% in test [3]; 80% in test [4]; 92% in test [5]; 100% in test [6]. The remaining binding at 100 µM stood at 92% in test [7]; 71% in test [8]; 91% in test [9]; 92% in test [10]; 58% in test [11]; 79% in test [12]. In addition, the remaining binding at 100 µM in test [13] amounted to 87%; in test [14], 71%; in [15], 100%; in [16], 98%; in test [17], 84%; in test [18], 99%. Moreover, the remaining binding at 100 µM amounted to 87% in test [19], 96% in [20], 86% in test [21] and 73% in test [22].

Source of the values: PMC10174618, “Monoterpenoid aryl hydrocarbon receptor allosteric antagonists protect against ultraviolet skin damage in female mice” (Nature Communications, 2023).
